Data from patent US5578725A, “Delta opioid receptor antagonists” (priority 1995, dated 1996).

Legend:
[1] = target: δ opioid receptors (Mus musculus, UniProt P32300); design: mouse vas deferens (MVD) preparations; from tissue; host or cells: mouse vas deferens, electrically stimulated; details: MVD, DADLE; data from Korlipara et al.; 15 min; read-out: Ke; cited from earlier work
[2] = target: μ (Cavia porcellus, UniProt A0ACM8Q262); details: data from Portoghese et al.; cited from earlier work
[3] = target: δ1 (Mus musculus, UniProt P32300); details: mouse, in vivo
[4] = system: rats; details: compared to peptidyl delta-opioid receptor antagonists; Ser. No. 07/750,109; cited from earlier work
[5] = K. Arakawa et al.; cited from earlier work
[6] = system: δ2; details: Jiang et al.; Korlipara et al.; cited from earlier work
[7] = compared with 2 or 3; cited from earlier work

Chain of δ1 (P32300 whole entry): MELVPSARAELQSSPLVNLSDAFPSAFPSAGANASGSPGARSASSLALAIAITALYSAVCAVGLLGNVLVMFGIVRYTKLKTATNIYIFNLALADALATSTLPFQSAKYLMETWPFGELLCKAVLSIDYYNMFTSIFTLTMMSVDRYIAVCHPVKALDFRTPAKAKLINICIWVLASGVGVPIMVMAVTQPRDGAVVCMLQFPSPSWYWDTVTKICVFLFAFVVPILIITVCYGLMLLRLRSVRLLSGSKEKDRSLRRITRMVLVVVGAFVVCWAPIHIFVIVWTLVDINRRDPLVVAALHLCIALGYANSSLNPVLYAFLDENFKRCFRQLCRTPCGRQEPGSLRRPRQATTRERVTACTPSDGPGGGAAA
Chain of μ (A0ACM8Q262 1-400): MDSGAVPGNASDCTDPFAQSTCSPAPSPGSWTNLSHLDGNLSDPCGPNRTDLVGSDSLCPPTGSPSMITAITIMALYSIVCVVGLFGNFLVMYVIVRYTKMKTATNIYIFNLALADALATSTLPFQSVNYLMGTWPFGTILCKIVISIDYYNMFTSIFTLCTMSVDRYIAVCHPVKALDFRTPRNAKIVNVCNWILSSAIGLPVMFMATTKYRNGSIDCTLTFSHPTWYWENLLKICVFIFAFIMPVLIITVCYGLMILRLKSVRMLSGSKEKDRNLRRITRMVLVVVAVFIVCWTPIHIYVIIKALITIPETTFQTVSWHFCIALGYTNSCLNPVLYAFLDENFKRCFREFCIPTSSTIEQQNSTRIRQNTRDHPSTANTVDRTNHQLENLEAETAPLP
Chain of δ opioid receptors (P32300 whole entry): as the sequence (P32300 whole entry) above

SMILES	Kb [1]	Ki [2]	Dose required to double the ED50 of DPDPE, i.c.v. [3]	Dose required to double the ED50 of DPDPE, i.v. ([3]; iv)	penetration into the CNS (in words) ([3]; iv)	suppression of ethanol drinking (in words) [4]	immunosuppressive activity (in words) [5]	in vivo δ subtype selectivity (in words) [6]	lipophilicity (in words) [7]
Oc1ccc2c3c1O[C@H]1c4[nH]c5ccccc5c4C[C@@]4(O)[C@@H](C2)N(CC2CC2)CC[C@]314 [Compound 1, naltrindole]	0.2 nM	3.8 nM	0.3 nmol/kg	2.19 µmol/kg	penetrates the CNS more readily than the conjugates	unexpectedly prolonged suppression of ethanol drinking	potent immunosuppressive activity		
Oc1ccc2c3c1O[C@H]1c4oc5ccccc5c4C[C@@]4(O)[C@@H](C2)N(CC2CC2)CC[C@]314 [naltriben (NTB), naltriben]						unexpectedly prolonged suppression of ethanol drinking		δ2 -selective antagonists	considerably more lipophilic than 2 or 3
